Here are results for one molecule from patent publication US7507766B2, “Treatment of cancers” (Pharma Mar, S.A., priority 2000, dated 2009).

Series [1] can be described thus: Phase I studies: aplidine myotoxicity and L-carnitine as myoprotector. In kind it is in vivo, human. The settings on record: in vivo. The method, then:
More generally, the invention involves the use of a muscle protector in conjunction with aplidine therapy. We have found in particular that carnitine is beneficial in treating myotoxicity that is associated with chemotherapy with the experimental drug aplidine. […] When L-carnitine 4.5 g/day was added to the therapy (at doses of 1.5 g three times daily), or 0.1 mg/kg (at doses of 0.033 mg 3 times daily) patients were able to tolerate doses of aplidine up to 6000 mcg/m 2 every second week. […] Therefore, muscle protectors such as L-carnitine is a useful myoprotector for patients being treated with aplidine or an aplidine analogue.
L-carnitine at a dose of 1.5 grams 3 times per day or 0.033 g/kg 3 times per day was started in all patients of study APL-A-003-98.

The subject of series [2] is panel of 25 human tumor cell lines. Description: tumor protection by L-carnitine in panel of tumor cell lines. In kind it is cell-based. The settings on record: initial results. The method, then:
The possibility of tumor protection by L-carnitine was evaluated using a panel of 25 human tumor cell lines.

Take `C[N+](C)(C)C[C@H](O)CC(=O)[O-]` [L-carnitine, reference compound]: in series [1] (human), the “increase of aplidine RD by L-carnitine prophylaxis” value is listed as 40%; the “only toxicity reported for L-carnitine” value was “grade 1 abdominal discomfort and diarrhea”. Besides, in series [1], the “L-carnitine dose below which it should not be decreased” value was no less than 3.5 grams per day, the “duration of beneficial effect (normal creatine kinase values)” value is on record as “at least 13 weeks”, the “outcome in 11 patients receiving L-carnitine prophylaxis from the beginning” value is on record as “just an asymptomatic G1 increase in CK” and the “tolerability of L-carnitine” value is on record as “well tolerated”. In addition, the “effect of L-carnitine on the antitumor activity of aplidine” value in series [2] is reported as “lack of effect”.
